Source: patent US7192746B2, “α-Isomaltosyltransferase, process for producing the same and use thereof” (Kabushiki Kaisha Hayashibara Seibutsu Kagaku Kenkyujo, priority 2000, dated 2007)

Tests used:
[1] = system: α-isomaltosyl-transferring enzyme from Bacillus globisporus C11; experiment: Formation of cyclotetrasaccharide from components A, B and C; format: biochemical; conditions: Enzyme of Strain C11, 35° C., 8 hours
Protocol: (§1) Using a purified α-isomaltosyl-transferring enzyme, the formation of cyclotetrasaccharide from the above-identified components A, B and C was examined as follows: One percent (w/v) of an aqueous solution (pH 6.0) of the component A (3-O-α-isomaltosylpanose represented by Chemical Formula 1), the component B (4-O-α-isomaltosylpanose represented by Chemical Formula 2), or the component C (1-O-α-isomaltosyl-β-panoside represented by Chemical Formula 3) was prepared into a substrate solution. To each of the resulting solutions was added one unit/g substrate of a purified specimen of α-isomaltosyl-transferring enzyme from Bacillus globisporus C9 obtained by the method in Experiment 4, or Bacillus globisporus C11 obtained by the method in Experiment 7, followed by enzymatic reaction at 35° C. for eight hours. Thereafter, the resulting mixtures were analyzed on HPLC for saccharide composition (%).

[2] = system: α-isomaltosyl-transferring enzyme from Bacillus globisporus C9; experiment: as above; format: biochemical; conditions: Enzyme of Strain C9, 35° C., 8 hours
Protocol: as §1

[3] = 1% (w/v) substrate, pH 6.0, 1 unit/g substrate

## OC[C@H]1O[C@H](OC[C@H]2O[C@H](O[C@@H]3O[C@H](CO)[C@@H](O[C@H]4O[C@H](CO[C@H]5O[C@H](CO)[C@@H](O)[C@H](O)[C@H]5O)[C@@H](O)[C@H](O)[C@H]4O)[C@H](O)[C@H]3O)[C@H](O)[C@@H](O)[C@@H]2O)[C@H](O)[C@@H](O)[C@@H]1O [Component C, 1-O-α-isomaltosyl-β-panoside]
[1]; [3]
  Saccharide composition, remaining Substrate: 56.0%
[1]
  Saccharide composition, Cyclotetrasaccharide: 5.9%
  Saccharide composition, Glucose: 0.2%
  Saccharide composition, Others: 37.9%
[2]; [3]
  Saccharide composition, remaining Substrate: 55.8%
[2]
  Saccharide composition, Cyclotetrasaccharide: 6.0%
  Saccharide composition, Glucose: 0.2%
  Saccharide composition, Others: 38.0%
